From paper PMC8594108, “In vitro growth inhibitory activity of Medicines for Malaria Venture pathogen box compounds against Leishmania aethiopica” (BMC Pharmacology & Toxicology, 2021)
“And” between values parts separate entries of the source, which are not always exact repeats. Identical values can stand only once. Like-named read-outs stand apart in the source and are kept apart here.

Experiments:
[1] = test system: intracellular L. aethiopica amastigotes; experiment: Intracellular amastigote assay in mouse peritoneal macrophages; format: cell-based, Leishmania aethiopica; conditions: for IC50 / inhibition at 1 µM: Leishmania aethiopica, Peritoneal macrophage, 72 h; for IC50: mouse peritoneal macrophages, read-out: IC50 against intracellular L. aethiopica amastigotes; for inhibition at 1 µM: read-out: percentage of inhibition of intracellular amastigotes
Experimental: Intracellular amastigote assay was conducted according to the method described elsewhere with modifications. Approximately 3 × 10^5 peritoneal macrophages were seeded in 24-well plates and allowed to adhere for 12 h at 33 °C in 5% CO2. Adherent cells were infected with late-stage L. aethiopica promastigotes (1:10 ratio) after washing out non-adherent cells twice. Only when > 70% of the macrophages present in the wells were infected was the infection deemed sufficient. The medium was then replaced with a fresh complete medium with or without test compounds and incubated for 72 h at 33 °C and 5% CO2. After 72 h of incubation, slides were washed with prewarmed PBS, fixed with methanol, and stained with Giemsa (10%) for 15 min and observed under 100x oil immersion objective microscope [Olympus]. Amphotericin B and pentamidine were used as reference drugs against test samples.
The IC50 was determined by counting amastigotes in (50) macrophages in duplicate cultures. In all assays except for haemolytic and THP- 1, test compounds were diluted in a two-fold dose-titration range (0.03 to 1 μM) in triplicate. Parasite burden was calculated using the infection index as shown below. Infection index=Number of infected macrophages/Total macrophage countedxTotal number of amastigotes in infected macrophages/Total infected macrophages counted

[2] = test system: L. aethiopica promastigotes; experiment: Primary antipromastigote assay (resazurin based); format: cell-based; conditions: Leishmania aethiopica, 72 h; for IC50: dose titration 0.03 to 1 μM, average of two independent experiments in triplicate, read-out: IC50 (95% CI) against Leishmania aethiopica promastigotes
Experimental: Test compounds were diluted in 96-well microculture plate containing 100 μL complete M199 medium. […] The Parasite density was kept constant at 1 × 10^5 per well. After 68 h of incubation, 10 μL of fluorochrome resazurin solution (Sigma-Aldrich, Co., St. […] The percentage of inhibition (%) was calculated for each concentration using the following formula: Inhibition%=100−Fluorescence in duplicate drug wells-Fluorescence in blank wells/Fluorescence control wells−Fluorescence in blank wells∗100

[3] = Haemolysis test; format: cell-based, sheep; conditions: sheep
Experimental: (§1) The mixture was then centrifuged at 1000 g for 10 min. 75 μL of the resulting supernatant were transferred to 96-well plates and the absorbance readings obtained at 540 nm using Victor3 Multilabel Counter (PerkinElmer, Waltham, USA).

[4] = THP-1 cell cytotoxicity assay (resazurin); format: cell-based; conditions: human
Experimental: (§2) Approximately 2 × 10^5 THP-1 cell suspension were added to 96-well microplate containing serially diluted 50 μL test compounds. Microplates were then incubated for 68 h at 37 °C in a 5% CO2 air mixture. Cell viability was determined with the resazurin- based fluorescence assay measured after a total incubation time of 72 h. The estimated median cell cytotoxicity (CC50) was calculated for each concentration using the formula: Cell viability%=Fluorescence in duplicate drug wells-Fluorescence blank wells/Fluorescence in control wells−Fluorescence blank wells∗100 The selectivity index of compounds was calculated from the ratio of the CC50 value determined in THP1 cells to the IC50 value determined from the dose-response curves in promastigote and amastigote assay using the following formula. Selectivity indexSI=CC50THP1cells/IC50promastigotes or amstigotes

[5] = ref NCBI PubChem [29]-[39]; cited from earlier work
[6] = test system: sheep red blood cells (RBCs); experiment: Haemolysis test; format: cell-based; conditions: at 25 μM
Experimental: as §1

[7] = test system: THP-1 cells; experiment: THP-1 cell cytotoxicity assay (resazurin); format: cell-based
Experimental: as §2

[8] = test system: PMM cells; set-up: method as in MMV (MMV PB website); conditions: ref MMV (MMV PB website); read-out: IC50 against PMM cells; cited from earlier work
[9] = test system: MRC-5 cells; set-up: method as in MMV (MMV PB website); conditions: ref MMV (MMV PB website); read-out: IC50 against MRC-5 cells; cited from earlier work
[10] = test system: L. infantum; set-up: method as in MMV biological data; conditions: ref MMV biological data; cited from earlier work
[11] = hit map sheet with colour categories, negative values shown as 0.00, read-out: Percentage of inhibition against Leishmania aethiopica promastigotes
[12] = hit map sheet without colour categories, negative values kept, read-out: Percentage of inhibition against Leishmania aethiopica promastigotes
[13] = sheep red blood cells (2% blood suspension), 1.56–25 μM, 2 h, 37 °C, read-out: Cytotoxicity, CC50, Sheep RBC
[14] = THP-1 cells, 72 h, read-out: Cytotoxicity, CC50, THP-1

## C[C@@H]1[C@H](O)[C@@H](C)/C=C/C=C/C=C/C=C/C=C/C=C/C=C/[C@H](O[C@@H]2O[C@H](C)[C@@H](O)[C@H](N)[C@@H]2O)C[C@@H]2O[C@](O)(C[C@@H](O)C[C@@H](O)[C@H](O)CC[C@@H](O)C[C@@H](O)CC(=O)O[C@H]1C)C[C@H](O)[C@H]2C(=O)O [Amphotericin B, reference compound]
[1]
  IC50: 277 ± 7.9 nM
[2]; [11]
  inhibition at 1 µM: 63%
[2]; [12]
  inhibition at 1 µM: 63%

## CN1CCC(NCc2cccc(-c3ccc(S(=O)(=O)NCc4ccccc4)cc3)c2)CC1 [MMV022029]
[3]; [13]
  CC50 at 2 h: > 25000 nM
[4]; [14]
  CC50 at 72 h: > 25000 nM
[1]
  activities against the intracellular amastigotes (in words): low
[5]
  R3 H+ bond receiver: 5
  R6 Polar surface area: 69.8 A^2
[2]; [11]
  inhibition at 1 µM: 88%
[2]; [12]
  inhibition at 1 µM: 88%
[2]
  IC50: 305 nM

## O=C(Nc1ccc(N2CCNCC2)cc1)c1ccn2ncc(-c3cccc(Cl)c3)c2n1 [MMV022478]
[3]; [13]
  CC50 at 2 h: > 25000 nM
[4]; [14]
  CC50 at 72 h: > 25000 nM
[1]
  IC50: 435 ± 49.2 nM
  inhibition at 1 µM: 72.4 ± 5.6%
[5]
  R3 H+ bond receiver: 5
  R6 Polar surface area: 74.6 A^2
[2]; [11]
  inhibition at 1 µM: 98.9%
[2]; [12]
  inhibition at 1 µM: 98.9%
[2]
  IC50: 448 nM

## O=C(Nc1cccc(Cl)c1)c1cnc(N2CCN(c3ccncc3)CC2)c(Cl)c1 [MMV024406]
[3]; [13]
  CC50 at 2 h: > 25000 nM
[4]; [14]
  CC50 at 72 h: > 25000 nM
[1]
  activities against the intracellular amastigotes (in words): low
  IC50: 900 ± 65.9 nM
  inhibition at 1 µM: 55.6 ± 5.5%
[5]
  R3 H+ bond receiver: 5
  R6 Polar surface area: 61.4 A^2
[2]; [11]
  inhibition at 1 µM: 97.3%
[2]; [12]
  inhibition at 1 µM: 97.3%
[2]
  IC50: 24 nM

## Cc1cccc(C(=O)Nc2ccnc(N(C)C3CCN(CC(C)C)CC3)c2)c1 [MMV024829]
[3]
  CC50 at 2 h: > 25000 nM
[4]
  CC50 at 72 h: > 25000 nM
[1]
  IC50: 411 ± 56.6 nM
  inhibition at 1 µM: 69.6 ± 4.1%
[5]
  R3 H+ bond receiver: 4
[2]; [11]
  inhibition at 1 µM: 82.4%
[2]; [12]
  inhibition at 1 µM: 82.4%
[2]
  IC50: 356 nM

## COc1cncc(-c2cncc(N3CCN(c4ccncc4)CC3)n2)c1 [MMV085071]
[3]; [13]
  CC50 at 2 h: > 25000 nM
[4]; [14]
  CC50 at 72 h: > 25000 nM
[1]
  IC50: 277 ± 37.2 nM
  inhibition at 1 µM: 80.5 ± 4.2%
[5]
  R3 H+ bond receiver: 7
  R6 Polar surface area: 67.3 A^2
[2]; [11]
  inhibition at 1 µM: 76.1%
[2]; [12]
  inhibition at 1 µM: 76.1%
[2]
  IC50: 283 nM

## CN1CCCC1CCO[C@](C)(c1ccccc1)c1ccc(Cl)cc1 (stereo partly drawn) [MMV637229]
[5]
  R3 H+ bond receiver: 2

## Clc1cccc(C(c2ccc(CN3CCNCC3)cc2)n2ccnc2)c1 (stereo not drawn) [MMV663250]
[3]; [13]
  CC50 at 2 h: > 25000 nM
[4]; [14]
  CC50 at 72 h: > 25000 nM
[5]
  R3 H+ bond receiver: 3
  R6 Polar surface area: 33.1 A^2
[2]; [11]
  inhibition at 1 µM: 81%
[2]; [12]
  inhibition at 1 µM: 81%
[2]
  IC50: 326 nM

## CN1CCN(CCCOc2ncc(Nc3ncc(-c4ccc(C(F)(F)F)c(F)c4)nc3C(N)=O)cn2)CC1 [MMV687812]
[3]; [13]
  CC50 at 2 h: > 25000 nM
[4]; [14]
  CC50 at 72 h: > 25000 nM
[5]
  R3 H+ bond receiver: 13
  R6 Polar surface area: 122 A^2
[2]; [11]
  inhibition at 1 µM: 72.9%
[2]; [12]
  inhibition at 1 µM: 72.9%
[2]
  IC50: 390 nM

## N=C(N)Nc1ccc(-c2ccc(-c3ccc(NC(=N)N)cc3Cl)o2)c(Cl)c1 [MMV688179, 2,5-Bis (2-chloro-4-guanidinophenyl) furan]
[3]; [13]
  CC50 at 2 h: > 25000 nM
[4]; [14]
  CC50 at 72 h: > 25000 nM
[5]
  R3 H+ bond receiver: 3
  R6 Polar surface area: 142 A^2
[2]; [11]
  inhibition at 1 µM: 80.6%
[2]; [12]
  inhibition at 1 µM: 80.6%
[2]
  IC50: 356 nM

## CO[C@@H]1CN(c2ccc(C#CC3(O)CN4CCC3CC4)c(Cc3ccccc3)n2)C[C@H]1O (stereo partly drawn) [MMV688415]
[3]; [13]
  CC50 at 2 h: > 25000 nM
[6]
  hemolytic activity on sheep RBC: 5.3%
[7]; 72 h
  CC20 on THP-1 cell line: 25000 nM
[4]; [14]
  CC50 at 72 h: > 25000 nM
[1]
  IC50: 374 ± 45.4 nM
  inhibition at 1 µM: 68.6 ± 6.6%
[5]
  R3 H+ bond receiver: 6
[2]; [11]
  inhibition at 1 µM: 98.7%
[2]
  IC50: 145 nM

## COc1ccc(Oc2ccc([C@@H](C)N(C)c3ncc4c(N)nc(N)nc4n3)cc2)cc1 [MMV690102]
[8]
  IC50: 4000 nM
[9]
  IC50: 5400 nM
[3]; [13]
  CC50 at 2 h: > 25000 nM
[7]; 72 h, extrapolated result
  Cytotoxicity, CC50 (extrapolated IC50), THP-1: 36500 nM and 36550 nM and 36000 nM
[7]; CC50 THP-1 cells / IC50 promastigotes or amastigotes
  Selectivity index (SI): 478.4
[10]
  IC50: 3 nM
[1]
  IC50: 76 ± 18.1 nM
  inhibition at 1 µM: 90.7 ± 5.3%
[5]
  R3 H+ bond receiver: 9
  R6 Polar surface area: 125 A^2
[2]; [11]
  inhibition at 1 µM: 95%
[2]
  IC50: 158 nM

## CCCCCCCCCCCCCCCCOP(=O)([O-])OCC[N+](C)(C)C [Miltefosine, reference compound]
[2]; [11]
  inhibition at 1 µM: 35.3%
[2]; [12]
  inhibition at 1 µM: 35.3%

## N=C(N)c1ccc(OCCCCCOc2ccc(C(=N)N)cc2)cc1 [Pentamidine, reference compound]
[1]
  IC50: 1600 ± 90 nM
[2]; [11]
  inhibition at 1 µM: 64.7%
[2]; [12]
  inhibition at 1 µM: 64.7%
[2]
  IC50: 1310 nM
